In US11213529B2, “Salt of substituted urea derivative and use thereof in medicine” (SUNSHINE LAKE PHARMA CO. LTD., priority 2017, dated 2022):
Read-outs that look alike come from different tables or passages of the source.

Assays:
[1] = Pharmacokinetics experiments of the salts of compound (I), oral capsules; type: in vivo, Beagle dogs
Protocol: The free base 1-(5-(tert-butyl)isoxazol-3-yl)-3-(4-((4-(3-morpholinopropoxy)phenyl) ethynyl)phenyl)urea, various salts or crystalline forms thereof were filled into capsules for oral administration respectively. Male Beagle dogs (6-10 kg) were grouped randomly, each group has 3, one was administered with free base by oral, others with various salts or crystalline forms thereof by oral at a dosage of 5 mg/kg. Blood samples were collected at 0.25, 0.5, 1.0, 2.0, 4.0, 6.0, 8.0, 12 and 24 hours after the administration. Standard curve was plotted based on concentrations of the samples in a suitable range, the concentrations of test compounds in plasma samples were determined by using Agilent 6430 LC-MS/MS under MRM mode, and quantitative analysis was performed. Pharmacokinetic parameters were calculated according to drug concentration-time curve using a noncompartmental method by WinNonLin 6.3 software.

[2] = for Purity/%: HPLC
Description: Samples were taken at fifth and tenth day, appearance was observed and purity was detected by HPLC.

[3] = for Appearance / Purity/%: illumination 4500±500 lx, UV; for Purity/%: HPLC
[4] = male Beagle dogs, oral capsule, 5 mg/kg, plasma
[5] = High humidity (25° C., RH 90% ± 5%), 0 day
[6] = High humidity (25° C., RH 90% ± 5%), 5 days
[7] = High humidity (25° C., RH 90% ± 5%), 10 days
[8] = High temperature (60° C. ± 2° C.), 0 day
[9] = High temperature (60° C. ± 2° C.), 5 days
[10] = High temperature (60° C. ± 2° C.), 10 days
[11] = dog, male Beagle dogs, oral capsule, 5 mg/kg, plasma

CC(C)(C)c1cc(NC(=O)Nc2ccc(C#Cc3ccc(OCCCN4CCOCC4)cc3)cc2)no1.O=S(=O)(O)c1ccccc1 [Benzene sulfonate crystaline form I]
absorption ([1]; beagle dogs, oral 5 mg/kg): faster
exposure level compared with the free base ([1]; beagle dogs, oral 5 mg/kg): higher
AUCINF [1, 4]: 0.592 µg·h/mL
AUClast [1, 4]: 0.575 µg·h/mL
Cmax [1, 4]: 0.0923 µg/mL
MRTINF [1, 4]: 6.55 h
T1/2 [1, 4]: 5.26 h
Tmax [1, 4]: 1 h
Appearance [2, 5]: yellow
Purity/% [2, 5]: 98.61%
Appearance [2, 6]: yellow
Hygroscopic weight gain/% [2, 6]: 0.388%
Purity/% [2, 6]: 98.59%
Appearance [2, 7]: yellow
Hygroscopic weight gain/% [2, 7]: 1.100%
Purity/% [2, 7]: 98.59%
Appearance [2, 8]: yellow
Purity/% [2, 8]: 98.61%
Appearance [2, 9]: yellow
Purity/% [2, 9]: 98.64%
Appearance [2, 10]: yellow
Purity/% [2, 10]: 98.61%
hygroscopicity characteristics ([2]; from weight gain under high humidity for 10 days): slightly hygroscopicity (less than 2% but no less than 0.2%)
change of appearance and purity ([2]; high humidity (25° C., RH 90%±5%)): have not been changed distinctly
change of appearance and purity ([2]; high temperature (60° C.±2° C.)): have not been changed distinctly
change of appearance and purity ([3]; illumination): have not been changed distinctly
Appearance ([3]; 0 day): yellow
Purity/% ([3]; 0 day): 98.61%
Appearance ([3]; 5 days): yellow
Purity/% ([3]; 5 days): 98.67%
Appearance ([3]; 13 days): yellow
Purity/% ([3]; 13 days): 98.71%

Br.CC(C)(C)c1cc(NC(=O)Nc2ccc(C#Cc3ccc(OCCCN4CCOCC4)cc3)cc2)no1 [Hydrobromide crystaline form I]
AUCINF [1, 4]: 0.225 µg·h/mL
AUClast [1, 4]: 0.401 µg·h/mL
Cmax [1, 4]: 0.0364 µg/mL
MRTINF [1, 4]: 8.54 h
T1/2 [1, 4]: 6.64 h
Tmax [1, 4]: 1.33 h

CC(C)(C)c1cc(NC(=O)Nc2ccc(C#Cc3ccc(OCCCN4CCOCC4)cc3)cc2)no1.Cl [Hydrochloride crystaline form I]
AUCINF [1, 4]: 0.371 µg·h/mL
AUClast [1, 4]: 0.358 µg·h/mL
Cmax [1, 4]: 0.0512 µg/mL
MRTINF [1, 4]: 6.5 h
T1/2 [1, 4]: 4.86 h
Tmax [1, 4]: 1.67 h

CC(C)(C)c1cc(NC(=O)Nc2ccc(C#Cc3ccc(OCCCN4CCOCC4)cc3)cc2)no1 [Free base, 1-(5-(tert-butyl)isoxazol-3-yl)-3-(4-((4-(3-morpholinopropoxy)phenyl)ethynyl)phenyl)urea]
AUC(0-inf) [1, 11]: 0.423 µg·h/mL
AUC(0-t) [1, 11]: 0.389 µg·h/mL
MRT inf [1, 11]: 7.52 h
half-life [1, 11]: 5.95 h
Cmax ([1]; dog, male Beagle dogs, oral capsule, 5 mg/kg, plasma, read-out: Cmax): 0.0609 µg/mL
Tmax ([1]; dog, male Beagle dogs, oral capsule, 5 mg/kg, plasma, read-out: Tmax): 1.67 h
